According to patent publication US20230405078A1, “DETECTION AND TREATMENT OF INTESTINAL FIBROSIS” (THE REGENTS OF THE UNIVERSITY OF CALIFORNIA, priority 2020, published 2023):
Entries after “also recorded” stand apart in the source; their conditions may differ. Where no end group is shown, it is not given here.

Legend:
[1] = system: Human colonic CCD-18Co fibroblasts; assay: TGF-β1-induced fibrogenesis in CCD-18Co fibroblasts; type: cell-based
Procedure: (§1) Cleveland Clinic IRB directives (IRB #17-1167). Primary non-IBD patient-derived colonic fibroblasts (H6231) were purchased from Cell Biologics. All primary colonic fibroblasts were cultured in fibroblast medium (M2267, Cell Biologics). Human colonic CCD-18Co fibroblasts (ATCC) were cultured in minimal essential medium Eagle's medium (MEM) containing 10% fetal bovine serum and 1% penicillin-streptomycin 6, 20. All fibroblasts were grown to 80% confluence and then switched to serum-free media overnight for experiments.
For activation of protease-activated receptors (PARs), fibroblasts were pretreated with 0.8% DMSO, 10 μM PAR1 agonist TRAP-6 (HY-P0078, MCE), 10 μM PAR2 agonist SLIGKV-NH2 (Protease-Activated Receptor-2, amide, HY-P0283, MCE), or 0.4 μg/ml PAR2-activating protease recombinant cathepsin S (1183-CY-010, R&D Systems) for 30 minutes. For miR205-5p activation, fibroblasts were transfected with (30 picomoles/well) either control (YM00479902) or miR205-5p miRCURY LNA mimic (YM00472340) from Qiagen via Lipofectamine 3000 transfection reagent (L3000001, ThermoFisher) in Opti-MEM (#31985062, ThermoFisher) overnight. For miR205-5p inhibition, fibroblasts were pretreated with 50nM either control (Y100199006) or miR205-5p power inhibitors (Y104101508-DDA) from Qiagen overnight. For overexpression of zinc finger E-box homeobox 1 (ZEB1), fibroblasts were infected with […] infectious units/plate either control (PS100064V) or human ZEB1-overexpressing lentivirus (RC217704L1V) from Origene, Inc. overnight.
The fibroblasts were pretreated with either 0.1% TFA (vehicle), 10 ng/ml transforming growth factor-beta 1 (TGF-p1), or 100 μg/ml serum exosomes from stricturing CD (CDSE) patients for two hours to induce fibrogenesis, followed by incubation with elafin (AS-61641, Anaspec) for 2-24 hours. Serum exosomes from CD patients were used to mimic the chemical environment of CD [12]. At the end of the experiments, the cells were lysed with either RLT buffer for RNA experiments or radioimmunoprecipitation assay (RIPA) buffer for ProCOL1A1 (DY6220-05, R&D Systems), COL1A2 (MBS2701496, MyBioSource), ZEB1 (MBS774017, MyBioSource), or phosphorylated ERK1/2 (DYC1018B, R&D Systems) ELISAs.

[2] = system: primary stricturing CD patient-derived colonic fibroblasts; assay: Fibrogenesis in CDSE-treated primary stricturing CD patient-derived colonic fibroblasts; type: cell-based, human
Procedure: Stricturing CD patient-derived primary colonic fibroblasts (CD-HIFs) were obtained from Cleveland Clinic via material transfer agreement (MTA2020-00000154) and under
as §1
For activation of protease-activated receptors (PARs), fibroblasts were pretreated with 0.8% DMSO, 10 μM PAR1 agonist TRAP-6 (HY-P0078, MCE), 10 μM PAR2 agonist SLIGKV-NH2 (Protease-Activated Receptor-2, amide, HY-P0283, MCE), or 0.4 μg/ml PAR2-activating protease recombinant cathepsin S (1183-CY-010, R&D Systems) for 30 minutes. For miR205-5p activation, fibroblasts were transfected with (30 picomoles/well) either control (YM00479902) or miR205-5p miRCURY LNA mimic (YM00472340) from Qiagen via Lipofectamine 3000 transfection reagent (L3000001, ThermoFisher) in Opti-MEM (#31985062, ThermoFisher) overnight. […]

[3] = system: TNBS-treated mice; assay: TNBS-associated colonic fibrosis in mice; type: in vivo
Procedure: Eight-week-old male and female CD-1 mice (#022, Charles River Laboratories) were injected with 50pL TNBS solution (to induce colonic fibrosis) or 30% ethanol (vehicle) via enema weekly for five weeks. After the last TNBS injection, the mice were held for two additional weeks to develop colonic fibrosis. Some of the mice were injected with 5 μg/mouse of either control (PS100001) or elafin-expressing construct (RC203136) from
Origene via InvivoJetPEI transfection reagent (201-10G, Polyplus) intracolonically on the 9th day after the last TNBS injection or five days before the end of experiment.
Some of the mice received either a single intraperitoneal injection of 10 mg/kg anti-tumor necrosis factor-alpha (anti-TNFα) neutralizing antibody (6E0058, BioXCell) or oral antibiotic mixture in drinking water ad libitum from the 9th day after the last TNBS injection to the endpoint of the experiment. The antibiotics mixture contains kanamycin (0.4 mg/mL), gentamicin (0.035 mg/mL), colistin (850 U/mL), metronidazole (0.215 mg/mL), and vancomycin (0.045 mg/mL), which was routinely used by our laboratory for suppressing intestinal microbiota.
For PAR1/2 activation, some of the mice were injected with DMSO (50pL/mouse), 5 mg/kg PAR1 agonist TRAP-6, or 5 mg/kg PAR2 agonist SLIGKV-NH2 via enema on the 9th, 11th, and 13th days after the last TNBS injection.
For miRNA inhibition, some of the mice were injected with 5 mg/kg either control inhibitor or miR205-5p power inhibitor (Qiagen) […] via enema on the 9th, 11th, and 13th days after the last TNBS injection.
For Zeb1 manipulation, some mice received a single intraperitoneal injection (10^7 infectious units/mouse) of control lentivirus (PS100064V), Zeb1-overexpressing lentivirus (MR223095L2V), or Zeb1-shRNA lentivirus (TL513177V) from Origene, Inc. nine days after the last TNBS injection.
Dr. Xingguo Cheng produced the oral elafin-Eudragit-FS3OD formulation via a material transfer agreement (UCLA MTA2019-00000337) with the Southwest Research Institute (SWRI) in Texas. […] The mice were fed with either control-Eudragit or elafin-Eudragit in mildly acidified (pH 5) water containing 0.5% hydroxypropyl methylcellulose (HPMC) daily via oral gavage during the last five days of the experiment.
H&E and Masson Trichrome (MT) staining were performed as described previously. Microphotographs were recorded at multiple locations and scored by two investigators blindly. Intestinal injuries were scored (0-12). The severity of intestinal fibrosis was assessed by MT staining and scored (0-3). ZEB1 immunohistochemistry was performed using an anti-ZEB1 antibody (HPA027524, Sigma).
Total RNA was isolated by an RNeasy kit (#74104, Qiagen) and reverse transcribed into cDNA by a high-capacity cDNA reverse transcription kit (#4368813, ThermoFisher). PCR reactions were run with Taq Universal SYBR Green Supermix (1725120, Bio-Rad) and TaqMan real-time PCR assays (ThermoFisher) in a Bio-Rad CFX384 system. For the determination of miRNA expression, RNA was converted to cDNA using miRCURY LNA RT kit. PCR reactions were run with miRCURY LNA SYBR Green PCR kit and miRCURY LNA PCR assays (Qiagen). Relative mRNA/miRNA quantification was performed by comparing test groups and control groups after normalization with endogenous control genes. The fold changes are expressed as […]. […]
Overall disease activity (ODA) was calculated by % change of histology and fibrosis scores and colonic mRNA expression of fibrosis- and inflammation-related genes. […]

Substance	effect on elafin-mediated miR205-5p induction and ZEB1 inhibition ([1]; TGF-β1-treated CCD-18Co fibroblasts, agonist 10 μM)	effect on elafin-mediated inhibition of collagen expression ([1]; TGF-β1-treated CCD-18Co fibroblasts, elafin 1 μg/ml)	effect on elafin-mediated inhibition of collagen expression ([2]; CDSE-conditioned primary human colonic fibroblasts)	colonic injury and fibrosis ([3]; TNBS-treated mice)	colonic miR205-5p expression ([3]; TNBS-treated mice)	effect on elafin-mediated inhibition of colonic injury, fibrosis and fibrogenic gene expression ([3]; TNBS-treated mice with intracolonic elafin overexpression)	TGF-β1 induced COL1A2 and ProCOL1A1 protein expression ([1]; CCD-18Co, ELISA of cell lysates)	TGF-β1-induced COL1A2 (collagen) mRNA expression ([1]; TGF-β1 10 ng/ml, elafin (0.1-10 micrograms/ml) added two hours later, 24 hours)	ZEB1 mRNA and protein expression ([1]; TGF-β1-/CD serum-exosome-treated human colonic fibroblasts)	miR205-5p expression ([1]; TGF-β1-treated CCD-18Co fibroblasts)	miR205-5p expression ([1]; TGF-β1-treated CCD-18Co fibroblasts, listed as elafin)	ProCOL1A1 protein expression ([2]; CDSE-treated, Elafin 1 μg/ml)	overall disease activity ([3]; TNBS models)
SLIGKV-NH2 [PAR2 agonist, reference compound]	reversed	reversed	reversed	did not affect	diminished	reversed	–	–	–	–	–	–	–
Elafin: small (6 kDa) human elastase-specific protease inhibitor and antimicrobial peptide; active form SEQ ID NO: 2 (AQEPVKGPVSTKPGSCPIILIRCAMLNPPNRCLKDTDCPGIKKCCEGSCGMACFVPQ; listed as Homo sapiens)	–	–	–	–	–	–	reversed	significantly reduced; also recorded: reversed	decreased; also recorded: diminished	increased	significantly increased	inhibited	7-11%
